Measured values: publication PMC12844124, “Synthesis and Study of Substituted Chalcones Combined with Fluoroazobenzenes—New Photoswitches for Application in Biological Systems” (Molecules, 2026)

Columns and labels:
[1] = UV–VIS spectra of E/Z isomers in DMSO; format: physicochemical; details: for Δ λmax n→π*: between E and Z isomers
Experimental: For this purpose, the UV–VIS spectra were measured for all synthesized hybrids (17a–17l) at concentrations from 20 to 500 µM in dimethyl sulfoxide (DMSO) in light at λ 505 nm and for (17a–17c), (17e–17g), and (17i–17l) at λ 525 nm, respectively, as detailed in Table 1 (see Section S4.4 in Supplementary Materials).

[2] = Solubility in DMSO; format: physicochemical
[3] = Photostationary state (PSS) composition by 19F NMR; format: physicochemical; details: irradiation 525 nm, DMSO-d6
Description: Azo compounds have been applied in various fields due to their ability to undergo structural changes, with one of the most interesting applications being the direct conversion of light into mechanical energy. However, azobenzenes generally face two main limitations that hinder their practical use in biological and materials sciences. The first is the need for UV light to induce the E→Z isomerization through π→π* excitation, which can potentially interfere with and damage the surrounding environment. The second limitation is the typically incomplete reverse Z→E photoisomerization, which is induced by irradiation in the visible region. In this region, the n→π* bands of the E and Z isomers largely overlap, making it difficult to achieve E-rich photostationary states (PSSs) after back-switching. These limitations can be overcome by modifying azobenzene in such a way that the n→π* bands of the E and Z isomers are sufficiently separated. If the separation is large enough, the two n→π* bands can be distinct, allowing visible light to selectively isomerize both isomers with high to complete E/Z photoconversions. We are looking for switches that operate within the visible light range of 380–750 nm, which is harmless. Fluorine-substituted azobenzenes are well-suited for designing visible-light-responsive systems, offering stable and bidirectional photoconversions along with tissue-compatible properties. We confirmed that the compounds we synthesized successfully dock with tubulin. In the next step, we tested whether the added azo compound would meet our expectations as a visible light switch. For this purpose, we used NMR spectroscopy. We measured ^19F spectra of (17a–17c, 17e–17g, and 17i–17l) at nine wavelengths from 390 nm to 610 nm to check which wavelengths produce the most Z isomer after exposure (see Section S4.2 in Supplementary Materials). We selected DMSO as the solvent due to its ability to dissolve both polar and nonpolar molecules, which is essential for the analytical methods employed in this study. Its intermediate polarity also makes it a good surrogate for both organic and aqueous solvents. Additionally, DMSO is commonly used for preparing stock solutions, which are then illuminated and diluted into aqueous systems for assessing biological activity. […]
Figure 2 (a) Photostationary state (PSS) compositions for chalcones (17a–17c, 17e–17g, and 17i–17l) determined by ^19F NMR analysis (c ≈ 100 mM in DMSO-d6), presented in a bar chart; (b) representative multiple photoswitching rounds of 60 µM of (17j) in DMSO by pulsed green (525 nm) and blue (430 nm) light illumination. The photochemical stability of the drug is analyzed via repeated cycles of irradiation (software: Microsoft Excel).

[4] = Changes over time of Z to E transition by 19F NMR; format: physicochemical; details: light 525 nm, 100 mM in DMSO
Description: We can observe that for electromagnetic radiation in the range of wavelengths 390 nm to 610 nm, transitions from E to Z of about 0–76% are obtained. The best results for all compounds are in visible wavelengths 505 nm or 525 nm (30.59–75.44%). From analyzing Figure 2 we can draw the following conclusions: all synthesized compounds undergo switching under visible light (this is important because UV radiation can damage the DNA of cells, inhibiting replication and, as a result, preventing cell division). For the 2,6-difluoro substituents (17i), (17j), (17k), and (17l) with values of 74.84%, 73.2%, 74.39%, and 75.44%, respectively, the largest share of the Z configuration is at (525 nm) and, for the rest of (17a), (17b), (17c), (17e), (17f), and (17g), it is in range of 30.57–47.13% at 505 nm. […] Multiple cycles of photoreversible switching under alternating green and blue light irradiation, with no significant photobleaching or degradation, confirmed the repeatable and robust photochromic conversion of the synthesized azobenzenes (Figure 2b). Then we measured changes over time (transitions from Z to E, upon irradiation with 505 nm for (17a–17c) and (17e–17g), and 525 nm for (17i–17l) compounds (Figure 3, and see Section S4.3 in Supplementary Materials).

[5] = test system: PC-3 cells; assay: MTS cell proliferation assay, PC-3; format: cell-based, human
Experimental: Human BJ fibroblasts (American Type Cell Culture Collection, Manassas, VA, USA, CRL-2522) and human prostate cancer cell line PC-3 (American Type Cell Culture Collection, Manassas, VA, USA, CRL-1435), derived from bone metastases, were routinely grown in […]) Medium (ThermoFisher, Waltham, MA, USA, 21127-022) and supplemented with heat-inactivated 10% Fetal Bovine Serum (Biowest, France, […]) and 1% antibiotic solution (Biowest, Nuaillé, France, L0022), in a humidified 5% CO2 atmosphere at 37 °C. Cells were used between 3 and 20 passages. The 96-well plates were prepared by seeding 5 × 10^3 or 2.5 × 10^3 cells per well, for 24 and 48 h treatments, respectively, with at least five technical and two biological repeats. […] The cells were treated with either the Z conformer of 17j, with continuous illumination with 525 nm light, or the E conformer. The Z conformer was prepared by illuminating its DMSO solution with 525 nm light overnight. The cell proliferation was analyzed with CellTiter Aqueous One Solution Cell Proliferation MTS (3-(4,5-dimethylthiazol-2-yl)-5-(3-carboxymethoxyphenyl)-2-(4-sulfophenyl)-2H-tetrazolium) Assay (Promega, Madison, WI, USA, G5430) after 24 or 48 h of treatment. The absorbance was measured at 490 and 670 nm with FLUOStar Omega plate reader (BMG LABTECH GmbH, Ortenberg, Germany). The statistical analysis was performed within R 4.5.1 project. […] The log-logistic four parametric model (4PL), with the lower limit boundary set to 0 and group fitting, was used, as available in the drc package, to fit cell proliferation data. […] The assessment metrics for model goodness of fit were performed with functions available in the drc package and with custom ones. When appropriate, the delta method was applied to obtain error of central tendency. To assess the goodness of fit for each of the biological replicates, deviance R^2 (DR^2) was calculated and assessed. […] The DR^2 was calculated according to the following Equation: 1 - (Dres/Dnull), where Dres-residual deviance and Dnull-null deviance (deviance of the model with mean as a predicted value). The null hypothesis was assessed with the two-way ANOVA with Tukey's post hoc test for multiple comparisons or with the two-way t-test when only two groups were compared. The differences in the cell cycle percentages were assessed with the two-way ANOVA with Tukey's post hoc test.

[6] = test system: PC-3 cells; assay: Cell cycle analysis by flow cytometry, PC-3; format: cell-based, human; details: 24 h
Experimental: The BJ or PC-3 cells were treated as described previously, with the exception that 0.15 × 10^6 cells per well were seeded in 6-well plates. After 24 h of treatment, cells were harvested by trypsinization (Biowest, Nuaillé, France, L0931), washed twice, resuspended in PBS, and added to cold 70% ethanol for overnight fixation at −20 °C. Subsequently, cells were centrifuged and resuspended in PBS containing 5 µg/mL of propidium iodide in PBS (Sigma-Aldrich, St. Louis, MO, USA, 4170), 0.1% Triton X-100, and 10 µg/mL of DNAse-free RNAse (A&A Biotechnology, Gdansk, Poland, 1006-10) in the dark for 4 h at 37 °C. FACS analysis was performed using a FACSCanto II flow cytometer and FACSDiva, version 9.0 software (BD Biosciences, San Jose, CA, USA). Flow rate was set to about 1000 events/cells per second. Signals from at least 10,000 events per sample were captured. The percentages of PC-3 cells in cell cycle phases (G0/G1, S, and G2/M) were determined using ModFit LT 4.1.7 (Verity Software House, Topsham, ME, USA).

| Compound | εmax (n→π*) ([1]; E isomer) [dm^3·mol^−1·cm^−1] | λmax n→π* (E) ([1]; E isomer) [nm] | εmax (n→π*) ([1]; Z isomer) [dm^3·mol^−1·cm^−1] | λmax n→π* (Z) ([1]; Z isomer) [nm] | Δ λmax n→π* [1] [nm] | solubility in DMSO [2] | share of the Z configuration (PSS) [3] [%] | Z isomer, changes over time ([4]; 0 h) [%] | Z isomer, changes over time ([4]; 1 h) [%] | Z isomer, changes over time ([4]; 2 h) [%] | Z isomer, changes over time ([4]; 3 h) [%] | Z isomer, changes over time ([4]; 4 h) [%] | Z isomer, changes over time ([4]; 5 h) [%] | Z isomer, changes over time ([4]; 6 h) [%] | Z isomer, changes over time ([4]; 7 h) [%] | Z isomer, changes over time ([4]; 8 h) [%] | Δ (Z to E change 0 h to 8 h) [4] [%] | further results |
| --- | --- | --- | --- | --- | --- | --- | --- | --- | --- | --- | --- | --- | --- | --- | --- | --- | --- | --- |
| O=C(/C=C/c1ccc(Br)cc1)c1cccc(/N=N/c2ccc(F)cc2)c1 [Compound 17d] | 660 | 440.8 | 850 | 434.1 | 6.7 | poorly soluble |  |  |  |  |  |  |  |  |  |  |  |  |
| O=C(/C=C/c1ccc(Br)cc1)c1cccc(/N=N/c2ccc(F)cc2F)c1 [Compound 17h] | 796 | 441.2 | 1016 | 426.9 | 14.3 | poorly soluble |  |  |  |  |  |  |  |  |  |  |  |  |
| COc1ccc(/C=C/C(=O)c2cccc(/N=N/c3c(F)cccc3F)c2)cc1OC [Compound 17i] |  |  |  |  |  |  | 74.84 | 74.84 | 73.32 | 72.17 | 70.9 | 69.59 | 68.98 | 68 | 67.46 | 66.19 | 8.65 |  |
| COc1cc(/C=C/C(=O)c2cccc(/N=N/c3c(F)cccc3F)c2)cc(OC)c1OC [Compound 17k] |  |  |  |  |  |  | 74.39 | 74.39 | 74.02 | 72.48 | 72.26 | 70.95 | 70.43 | 69.33 | 67.93 | 67.18 | 7.21 |  |
| O=C(/C=C/c1ccc(Br)cc1)c1cccc(/N=N/c2c(F)cccc2F)c1 [Compound 17l] | 902 | 448.6 | 1074 | 417.9 | 30.7 |  | 75.44 | 75.44 | 74.04 | 72.7 | 71.56 | 70.77 | 69.92 | 68.63 | 67.93 | 67.78 | 7.66 |  |
| COc1cc2c(c(OC)c1OC)-c1ccc(OC)c(=O)cc1[C@@H](NC(C)=O)CC2 [colchicine, reference compound] |  |  |  |  |  |  |  |  |  |  |  |  |  |  |  |  |  | normalized asymptote ([5]; 24 h treatment): 63.8 ± 6.2%; normalized asymptote ([5]; 48 h treatment): 51.3 ± 5.7%; percentage of cells in the G2/M phase ([6]; 20 nM): 15.7%; percentage of cells in the G2/M phase ([6]; 60 nM): 54.2% |
